Measured values published in patent US20080234188A1, “Antimicrobial Peptides” (The Hospital for Sick Children, priority 2001, published 2008).
Values after ≈ are worked out from the molar mass of the structure shown. Where a SMILES comes first, the peptide text is derived from it.

Columns and labels:
[1] = tested on: C498: E. coli, wild type strain; type: cell-based; conditions: C498: , wild type strain
From the text: (§1) The bacterial strains used were E. coli C498, E. coli C500, Escherichia coli UB1005 and its antibiotic supersusceptible derivative DC2 (22); a clinical isolate of Staphylococcus epidermidis (C621); coryneform bacterial strain Corynebacterium xerosis (C875); and E. coli ATCC 25922, Staphylococcus aureus ATCC 25923, Enterococcus faecalis ATCC 29212, Bacillus subtilis ATCC 6633 and Pseudomonas aeruginosa ATCC 27853, all from American Type Culture Collection.
(§2) Peptide antibacterial activity was assessed by the method of R. Hancock et al. (Wu & Hancock (1999), J. Biol. Chem., v. 274, pp. 29-35). Test strains of bacteria from Mueller Hinton agar (MHA) plates were inoculated into 5 ml Mueller Hinton Broth (MHB) in tubes and grown overnight at 37° C. on a shaker (180 rpm). Serial dilutions of test peptides (at 10 times the required test concentrations) were made in 0.01% acetic acid, 0.2% BSA, in polypropylene or coated glass tubes as follows: the test peptide was (a) dissolved in distilled water at 20 times the required maximum concentration (enough final volume for all tests to be performed on a given day); (b) diluted into an equal volume of 0.02% acetic acid, 0.4% BSA to give 10 times the required maximum concentration; (c) serial doubling dilutions were performed in 0.01% acetic acid, 0.2% BSA to provide serial dilutions of peptides at 10 times the required test concentrations, e.g., 640, 320, 160, . . . 2.5 μg/ml. (No deleterious effects of long-term storage of peptides in these media have been detected). Overnight bacterial cultures were diluted in MHB to give 2−7×10^5 colony forming units/ml. Bacterial suspension (100 μl) was dispensed in each well; controls without bacteria were maintained in parallel. To each well was added 11 μl of 10× test peptide and plates were incubated at 37° C. for 18-24 hours, and checked again at 40-48 hours. Plates were read visually and at 600 nm in a microplate reader (Molecular Devices).
(§3) were synthesized. The antibacterial activity of these peptides was determined against both Gram-positive bacteria ([…], Corynebacterium xerosis) and Gram-negative bacteria (various strains of E. coli). The results are shown in Table 2, along with the average hydrophobicity of each peptide, calculated as described herein.

[2] = tested on: C500: E. coli, antibiotic strain; type: cell-based; conditions: C500: , antibiotic strain
From the text: as §1, §2, §3

[3] = tested on: S. aureus ATCC25923; type: cell-based, Staphylococcus aureus
From the text: as §1, §2
(§4) A further number of the peptides of the invention were tested for antimicrobial activity against a range of Gram-positive and Gram-negative bacteria by the assay described immediately before Example 1.

[4] = tested on: Corynebacterium xerosis (C875); type: cell-based
In short: (§5)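 Broth microdilution in Mueller Hinton Broth, inoculum 2−7×10^5 CFU/ml. Peptides serially doubled in 0.01% acetic acid, 0.2% BSA and added at 10× final concentration. Incubation 37° C for 18-24 h, rechecked at 40-48 h; growth read visually and at 600 nm.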

[5] = tested on: Staphylococcus epidermidis (C621); type: cell-based; conditions: C621
In short: as §5

[6] = tested on: Rabbit RBC; type: cell-based
Procedure: (§6) Erythrocytes from heparinized rabbit or human blood were washed three times with phosphate-buffered saline (PBS; 5 mM phosphate buffer, 0.14 M saline, pH 7.3), and centrifuged at 1000×g for 15 min at 4° C. The erythrocytes were diluted with PBS to 4% (v/v). Dilutions of the peptides in PBS were plated in 100 μl volumes in microtitre plates (Costar 3790, polypropylene) together with 100μl of the erythrocyte suspension. PBS was used as control and 100% lysis was determined in 0.1% Triton X-100. The plates were incubated at 37° C. for 1 h and then centrifuged at 1000×g for 5 min. 100 μl aliquots of the supernatant were transferred to microtitre plates (Nunc, polystyrene), and the release of hemoglobin was monitored by measurement of the absorbance at 540 nm in a microplate reader. The results are shown in Table 6, for peptide concentrations of […]. With only one or two exceptions, little or no hemolysis was seen.

[7] = tested on: Human RBC; type: cell-based
Procedure: as §6

[8] = tested on: E. coli ATCC25922; type: cell-based
From the text: as §1, §2, §4

[9] = tested on: E. coli UB1005; type: cell-based, Escherichia coli; conditions: UB1005
In short: (§7)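 MIC values come from Mueller Hinton broth microdilution at 37° C (18-24 h, recheck 40-48 h), inoculum 2−7×10^5 CFU/ml. Endpoint taken from visual inspection plus OD600.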

[10] = tested on: B. subtilis ATCC6633; type: cell-based, Bacillus subtilis
From the text: as §1, §2, §4

[11] = tested on: E. faecalis ATCC29212; type: cell-based, Enterococcus faecalis
From the text: as §1, §2, §4

[12] = tested on: P. aeruginosa ATCC27853; type: cell-based, Pseudomonas aeruginosa
From the text: as §1, §2, §4

[13] = tested on: E. coli DC2; assay: Assay of antibacterial activity (MIC), E. coli DC2; type: cell-based, Escherichia coli; conditions: Table 5A
In short: as §7

Row | MIC C621 [5] [µM] | Structure (SMILES) | MIC C498 [1] [µM] | MIC C500 [2] [µM] | MIC S. aureus ATCC25923 [3] [µM] | MIC C875 [4] [µM] | MIC C. xerosis C875 [4] [µM] | MIC S. epidermidis C621 [5] [µM] | Rabbit RBC (% lysis) 50 μM [6] [% lysis] | Rabbit RBC (% lysis) 200 μM [6] [% lysis] | Human RBC (% lysis) 50 μM [7] [% lysis] | Human RBC (% lysis) 200 μM [7] [% lysis] | MIC E. coli ATCC25922 [8] [µM] | MIC E. coli UB1005 [9] [µM] | MIC B. subtilis ATCC6633 [10] [µM] | MIC E. faecalis ATCC29212 [11] [µM] | MIC P. aeruginosa ATCC27853 [12] [µM] | MIC E. coli DC2 [13] [µM]
1 | – | C[C@H](NC(=O)[C@H](C)NC(=O)[C@H](Cc1ccccc1)NC(=O)[C@H](C)NC(=O)[C@H](C)NC(=O)[C@H](Cc1c[nH]c2ccccc12)NC(=O)[C@H](C)NC(=O)[C@H](C)NC(=O)[C@H](Cc1ccccc1)NC(=O)[C@H](C)NC(=O)[C@H](C)NC(=O)[C@H](CCCCN)NC(=O)[C@H](CCCCN)NC(=O)[C@H](CCCCN)NC(=O)[C@H](CCCCN)NC(=O)[C@H](CCCCN)NC(=O)[C@@H](N)CCCCN)C(N)=O [F17(K6), KKKKKKAAFAAWAAFAA-NH2] (H-KKKKKKAAFAAWAAFAA-NH2; N-terminus assumed) | 0.5 (≈ 0.918 µg/mL) | <0.25 | >32 | 0.5 (≈ 0.918 µg/mL) | 0.5 (≈ 0.918 µg/mL) | 4 (≈ 7.34 µg/mL) | 0 | 1 | 0 | 0 | 8 (≈ 14.7 µg/mL) | 1 (≈ 1.84 µg/mL) | 8 (≈ 14.7 µg/mL) | >32 | 16 (≈ 29.4 µg/mL) | 0.5 (≈ 0.918 µg/mL)
2 | 8 (≈ 20.4 µg/mL) | C[C@H](NC(=O)[C@H](C)NC(=O)[C@H](C)NC(=O)[C@H](CCCCN)NC(=O)[C@@H](N)CCCCN)C(=O)N[C@@H](C)C(=O)N[C@@H](Cc1ccccc1)C(=O)N[C@@H](C)C(=O)N[C@@H](C)C(=O)N[C@@H](Cc1ccccc1)C(=O)N[C@@H](C)C(=O)N[C@@H](C)C(=O)N[C@@H](Cc1c[nH]c2ccccc12)C(=O)N[C@@H](Cc1ccccc1)C(=O)N[C@@H](C)C(=O)N[C@@H](C)C(=O)N[C@@H](Cc1ccccc1)C(=O)N[C@@H](C)C(=O)N[C@@H](C)C(=O)N[C@@H](C)C(=O)N[C@@H](C)C(=O)N[C@@H](CCCCN)C(=O)N[C@@H](CCCCN)C(=O)N[C@@H](CCCCN)C(=O)N[C@@H](CCCCN)C(N)=O [[F(4)25]] (H-KKAAAAFAAFAAWFAAFAAAAKKKK-NH2; N-terminus assumed) | 16 (≈ 40.9 µg/mL) | 4 (≈ 10.2 µg/mL) | 32 (≈ 81.8 µg/mL) | 0.25 (≈ 0.639 µg/mL) | – | 4 (≈ 10.2 µg/mL) | 14 | 34 | 17 | 42 | 16 (≈ 40.9 µg/mL) | 8 (≈ 20.4 µg/mL) | 2 (≈ 5.11 µg/mL) | >32 | 8 (≈ 20.4 µg/mL) | –
3 | – | C[C@H](NC(=O)[C@H](C)NC(=O)[C@H](CCCCN)NC(=O)[C@H](CCCCN)NC(=O)[C@@H](N)CCCCN)C(=O)N[C@@H](C)C(=O)N[C@@H](Cc1ccccc1)C(=O)N[C@@H](C)C(=O)N[C@@H](C)C(=O)N[C@@H](Cc1c[nH]c2ccccc12)C(=O)N[C@@H](C)C(=O)N[C@@H](C)C(=O)N[C@@H](Cc1ccccc1)C(=O)N[C@@H](C)C(=O)N[C@@H](CCCCN)C(=O)N[C@@H](CCCCN)C(=O)N[C@@H](CCCCN)C(N)=O [Peptide F17, KKKAAAFAAWAAFAKKK-NH2] (H-KKKAAAFAAWAAFAKKK-NH2; N-terminus assumed) | – | – | >32 | – | 4 (≈ 7.34 µg/mL) | >32 | 0 | 2 | 0 | 0 | >32 | 32 (≈ 58.7 µg/mL) | 16 (≈ 29.4 µg/mL) | >32 | >32 | 16 (≈ 29.4 µg/mL)
